According to patent US20050095240A1, “NaCT as a target for lifespan expansion and weight reduction” (Medical College of Georgia Research, priority 2002, published 2005):
Like-named read-outs stand apart in the source and are kept apart here.

Assays:
[1] = target: T1, ceNaCT (Caenorhabditis elegans, UniProt P32739, I91S/L182M); assay: Uptake via ceNaCT expressed in HRPE cells
T1 sequence (P32739 1-551 I91S/L182M): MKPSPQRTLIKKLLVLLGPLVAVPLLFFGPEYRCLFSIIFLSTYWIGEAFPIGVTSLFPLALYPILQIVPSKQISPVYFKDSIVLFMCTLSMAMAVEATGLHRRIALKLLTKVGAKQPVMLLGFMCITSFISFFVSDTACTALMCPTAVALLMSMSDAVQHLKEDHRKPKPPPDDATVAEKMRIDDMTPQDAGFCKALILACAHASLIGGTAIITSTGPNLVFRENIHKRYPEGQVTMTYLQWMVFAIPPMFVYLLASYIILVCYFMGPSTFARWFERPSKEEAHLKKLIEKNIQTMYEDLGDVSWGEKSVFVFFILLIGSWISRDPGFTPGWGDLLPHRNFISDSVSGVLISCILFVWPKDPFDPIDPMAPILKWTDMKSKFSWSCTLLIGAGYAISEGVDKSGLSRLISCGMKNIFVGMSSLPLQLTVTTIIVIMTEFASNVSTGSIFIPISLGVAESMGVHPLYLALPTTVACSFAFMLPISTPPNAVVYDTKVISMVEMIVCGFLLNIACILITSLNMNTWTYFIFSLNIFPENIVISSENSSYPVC

[2] = target: T2, NaCT in HepG2 cells (Homo sapiens, UniProt Q86YT5); assay: Citrate uptake in HepG2 cells (constitutively expressed NaCT); type: cell-based
T2 construct: the effect of Li^+ on constitutively expressed NaCT in human liver cells was studied; host or cells: HepG2
T2 sequence (Q86YT5 whole entry): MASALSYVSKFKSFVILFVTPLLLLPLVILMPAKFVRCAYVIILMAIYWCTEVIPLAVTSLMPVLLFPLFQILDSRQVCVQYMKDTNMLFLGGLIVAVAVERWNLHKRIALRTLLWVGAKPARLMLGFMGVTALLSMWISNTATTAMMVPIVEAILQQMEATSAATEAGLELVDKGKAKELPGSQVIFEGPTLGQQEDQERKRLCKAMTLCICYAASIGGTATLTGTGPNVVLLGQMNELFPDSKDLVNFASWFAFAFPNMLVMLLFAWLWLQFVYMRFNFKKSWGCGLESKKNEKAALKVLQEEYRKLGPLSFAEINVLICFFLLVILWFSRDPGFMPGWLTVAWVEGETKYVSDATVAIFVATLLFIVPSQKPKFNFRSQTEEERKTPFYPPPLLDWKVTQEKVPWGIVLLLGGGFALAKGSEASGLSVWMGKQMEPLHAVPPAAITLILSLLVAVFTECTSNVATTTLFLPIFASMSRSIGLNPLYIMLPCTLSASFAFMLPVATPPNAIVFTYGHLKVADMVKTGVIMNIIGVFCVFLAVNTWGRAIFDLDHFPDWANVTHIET
Description: Uptake measurement in human liver cell lines. The human liver cell lines (HepG2 and Huh-7) were cultured to confluency in 24-well culture plates using appropriate culture medium. The HepG2 cell line was obtained from American Type Culture Collection (Manasses, Va.). The Huh-7 cell line (Bode et al., (2002) Am. J. Physiol. 283, G1062-G1073) was provided by Dr. Barrie P. Bode (St. Louis University, St. Louis, Mo.). Uptake measurements in monolayer cultures of these cells were measured as described above for the heterologously expressed NaCTs.

[3] = target: T3, rat NaCT (Rattus norvegicus, UniProt Q8CJ44); assay: Uptake via rat NaCT expressed in HRPE cells; type: cell-based
T3 sequence (Q8CJ44 1-572): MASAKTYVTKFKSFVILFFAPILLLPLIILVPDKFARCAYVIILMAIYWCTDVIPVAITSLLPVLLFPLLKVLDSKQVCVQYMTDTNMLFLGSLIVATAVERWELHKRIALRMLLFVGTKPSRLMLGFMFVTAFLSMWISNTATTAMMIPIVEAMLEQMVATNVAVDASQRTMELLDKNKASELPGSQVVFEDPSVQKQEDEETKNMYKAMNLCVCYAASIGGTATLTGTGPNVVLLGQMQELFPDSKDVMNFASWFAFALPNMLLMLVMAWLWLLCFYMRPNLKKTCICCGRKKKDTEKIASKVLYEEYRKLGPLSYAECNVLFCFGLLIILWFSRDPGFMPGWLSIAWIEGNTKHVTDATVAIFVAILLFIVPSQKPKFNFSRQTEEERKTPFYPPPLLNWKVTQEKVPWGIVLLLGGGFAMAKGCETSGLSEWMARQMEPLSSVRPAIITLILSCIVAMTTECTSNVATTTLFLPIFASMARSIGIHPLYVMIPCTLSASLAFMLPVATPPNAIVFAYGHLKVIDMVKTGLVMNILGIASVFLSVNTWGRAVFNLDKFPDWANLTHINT

[4] = target: zebrafish NaCT (Danio rerio, UniProt A0A2R8QQN0, K78Q); assay: Citrate uptake via zebrafish NaCT expressed in HRPE cells; type: cell-based; settings: for Citrate uptake, zfNaCT, percent of corresponding control: 30 min
Sequence of zebrafish NaCT (A0A2R8QQN0 2-582 K78Q): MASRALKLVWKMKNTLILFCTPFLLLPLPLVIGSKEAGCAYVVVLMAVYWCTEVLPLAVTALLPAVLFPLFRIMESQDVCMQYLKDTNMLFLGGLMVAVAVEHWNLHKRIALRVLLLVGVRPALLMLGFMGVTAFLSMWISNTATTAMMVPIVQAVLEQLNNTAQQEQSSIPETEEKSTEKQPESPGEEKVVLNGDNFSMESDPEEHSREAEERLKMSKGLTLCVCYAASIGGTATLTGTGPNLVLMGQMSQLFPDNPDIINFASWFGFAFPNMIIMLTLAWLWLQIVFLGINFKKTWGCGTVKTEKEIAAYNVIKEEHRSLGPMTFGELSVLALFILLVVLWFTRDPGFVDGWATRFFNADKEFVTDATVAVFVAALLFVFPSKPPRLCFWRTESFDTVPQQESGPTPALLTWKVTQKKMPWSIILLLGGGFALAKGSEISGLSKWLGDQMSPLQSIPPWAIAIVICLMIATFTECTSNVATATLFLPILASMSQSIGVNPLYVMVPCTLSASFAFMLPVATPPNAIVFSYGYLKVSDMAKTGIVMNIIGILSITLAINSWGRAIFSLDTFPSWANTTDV

[5] = cited from earlier work
[6] = target: T4, mouse NaCT (Mus musculus, UniProt Q67BT3); assay: Transport via mouse NaCT expressed in HRPE cells; type: cell-based
T4 sequence (Q67BT3 1-572): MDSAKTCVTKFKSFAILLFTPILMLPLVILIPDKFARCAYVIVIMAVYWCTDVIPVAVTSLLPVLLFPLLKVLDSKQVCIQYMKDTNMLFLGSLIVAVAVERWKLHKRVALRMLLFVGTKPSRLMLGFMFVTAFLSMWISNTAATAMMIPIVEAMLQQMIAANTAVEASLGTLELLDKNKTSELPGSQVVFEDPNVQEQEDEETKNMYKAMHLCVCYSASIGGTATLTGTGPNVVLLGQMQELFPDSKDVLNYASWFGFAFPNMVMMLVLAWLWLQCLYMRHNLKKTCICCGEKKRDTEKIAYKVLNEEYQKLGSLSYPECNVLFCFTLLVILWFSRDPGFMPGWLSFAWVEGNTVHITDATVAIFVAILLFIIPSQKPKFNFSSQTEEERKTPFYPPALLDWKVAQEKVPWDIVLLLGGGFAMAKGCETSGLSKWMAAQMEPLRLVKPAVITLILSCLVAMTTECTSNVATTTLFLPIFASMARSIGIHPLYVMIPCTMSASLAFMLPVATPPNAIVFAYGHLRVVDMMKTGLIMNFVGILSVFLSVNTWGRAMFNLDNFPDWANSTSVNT

[7] = target: human NaCT (Homo sapiens, UniProt Q86YT5); assay: Uptake via human NaCT expressed in HRPE cells; type: cell-based
Sequence of human NaCT (Q86YT5 whole entry): as the sequence (Q86YT5 whole entry) above

[8] = target: T3, rat NaCT; assay: Rat NaCT in X. laevis oocytes, voltage clamp and charge-to-substrate ratio; type: cell-based
[9] = target: drIndy (Drosophila melanogaster, UniProt Q9VVT2); settings: for cDNA-specific [^3H] succinate uptake: pH 7.5
Sequence of drIndy (Q9VVT2 19-590): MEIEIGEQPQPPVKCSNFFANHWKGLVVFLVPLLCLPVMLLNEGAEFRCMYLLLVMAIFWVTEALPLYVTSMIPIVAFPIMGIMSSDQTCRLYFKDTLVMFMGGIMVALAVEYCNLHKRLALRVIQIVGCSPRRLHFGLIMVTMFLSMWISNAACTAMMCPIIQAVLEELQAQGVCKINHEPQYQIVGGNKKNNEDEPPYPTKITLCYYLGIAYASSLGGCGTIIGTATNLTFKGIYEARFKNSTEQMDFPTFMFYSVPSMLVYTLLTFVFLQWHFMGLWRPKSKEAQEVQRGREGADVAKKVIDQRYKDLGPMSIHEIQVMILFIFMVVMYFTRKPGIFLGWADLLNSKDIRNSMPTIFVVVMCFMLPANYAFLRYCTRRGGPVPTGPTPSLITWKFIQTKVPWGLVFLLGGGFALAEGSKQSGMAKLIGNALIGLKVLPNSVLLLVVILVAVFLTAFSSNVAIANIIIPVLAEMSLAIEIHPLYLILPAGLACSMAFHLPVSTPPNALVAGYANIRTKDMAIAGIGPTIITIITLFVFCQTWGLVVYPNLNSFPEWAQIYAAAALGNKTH

[10] = substrate: O=C(O)CC(O)(CC(=O)O)C(=O)O; assay: cells, lysate or membranes; settings: other: pH 7.5, 37.0 °C
[11] = Li+ 2 mM, valproate 0.6 μM, carbamazepine 50 μM

NC(=O)N1c2ccccc2C=Cc2ccccc21 [Carbamazepine, carbamazepine]
Citrate uptake, ceNaCT [1, 11]: 45.1 ± 1.5 pmol/10^6 cells/min | Citrate uptake, ceNaCT, percent of corresponding control [1, 11]: 104% | Citrate uptake, HepG2 cells [2, 11]: 10.0 ± 0.2 pmol/min/mg protein | Citrate uptake, HepG2 cells, percent of corresponding control [2, 11]: 106% | Citrate uptake, rNaCT [3, 11]: 133.5 ± 0.7 pmol/10^6 cells/min | Citrate uptake, rNaCT, percent of corresponding control [3, 11]: 90% | Citrate uptake, zfNaCT [4]: 441.0 ± 2.7 (91) pmol/10^6 cells/min | Citrate uptake, zfNaCT, percent of corresponding control ([4]; hrpe cells): 441.0 ± 2.7 (91) percent | Therapeutic plasma levels in humans ([5]; human, in vivo): 20 to 50 µM | Citrate uptake, mNaCT [6, 11]: 43.7 ± 2.0 pmol/10^6 cells/min | Citrate uptake, mNaCT, percent of corresponding control [6, 11]: 103% | Citrate uptake, hNaCT [7, 11]: 54.1 ± 2.6 pmol/10^6 cells/min | Citrate uptake, hNaCT, percent of corresponding control [7, 11]: 105%

CC(O)C(=O)O (centres unmarked) [Lactate, lactate]
Substrate-induced currents [8]: no or little currents | Competition with [^14C]citrate for ceNaCT-mediated uptake [1]: only a minimal inhibition | % Control of cDNA-specific [^3H]succinate uptake [9]: 77% | cDNA-specific [^3H] succinate uptake [9]: 111.2 ± 3.2 fmol/106 cells per min | [^14C]Citrate uptake (cDNA-specific) [3]: 89.6 ± 2.0 Pmol/10^6 cells/min | [^14C]Citrate uptake, % [3]: 83% | [^3H]-Succinate transport (NaCT-specific) [6]: 0.162 ± 0.008 pmol/10^6 cells/min | [^3H]-Succinate transport, % [6]: 111% | [^14C]-Citrate transport (NaCT-specific) [6]: 29.8 ± 3.4 pmol/10^6 cells/min | [^14C]-Citrate transport, % [6]: 78% | [^14C]-Citrate Uptake (cDNA-specific) [7]: 61.2 ± 6.0 pmol/10^6 cells/min | [^14C]-Citrate Uptake, % [7]: 128%

O=C(O)/C=C\C(=O)O [Maleate]
Competition with [^14C]citrate for ceNaCT-mediated uptake [1]: failed to compete with citrate | % Control of cDNA-specific [^3H]succinate uptake [9]: 85% | cDNA-specific [^3H] succinate uptake [9]: 123.1 ± 7.6 fmol/106 cells per min | [^14C]Citrate uptake (cDNA-specific) [3]: 78.8 ± 1.5 Pmol/10^6 cells/min | [^14C]Citrate uptake, % [3]: 73% | [^3H]-Succinate transport (NaCT-specific) [6]: 0.165 ± 0.014 pmol/10^6 cells/min | [^3H]-Succinate transport, % [6]: 113% | [^14C]-Citrate transport (NaCT-specific) [6]: 31.2 ± 2.5 pmol/10^6 cells/min | [^14C]-Citrate transport, % [6]: 82% | [^14C]-Citrate Uptake (cDNA-specific) [7]: 58.0 ± 6.7 pmol/10^6 cells/min | [^14C]-Citrate Uptake, % [7]: 121%

CCCC(CCC)C(=O)O [Valproate, valproate]
Citrate uptake, ceNaCT, percent of corresponding control [1, 11]: 106% | Citrate uptake, HepG2 cells, percent of corresponding control [2, 11]: 105% | Citrate uptake, rNaCT, percent of corresponding control [3, 11]: 96% | Citrate uptake, zfNaCT, percent of corresponding control [4, 11]: 93.2% | Plasma concentrations / therapeutic plasma levels in humans ([5]; patients under treatment): 300 to 600 µM | Citrate uptake, mNaCT, percent of corresponding control [6, 11]: 100% | Citrate uptake, hNaCT, percent of corresponding control [7, 11]: 111%

O=C(O)/C=C(/CC(=O)O)C(=O)O [cis-Aconitate, cis-aconitate]
Substrate-induced currents as % of citrate-induced currents ([8]; substrate 0.5 mM): approximately 10% | Competition with [^14C]citrate for ceNaCT-mediated uptake ([1]; competitor 2.5 mM, [14C]citrate 15 μM): did not compete with [^14C]citrate as effectively as unlabelled citrate | [^3H]-Succinate transport (NaCT-specific) ([6]; [3H]-succinate 0.1 μM, substrate analog 2 mM): 0.062 ± 0.005 pmol/10^6 cells/min | [^3H]-Succinate transport, % ([6]; [3H]-succinate 0.1 μM, substrate analog 2 mM, control = 100): 43% | [^14C]-Citrate transport (NaCT-specific) ([6]; [14C]-citrate 10 μM, substrate analog 2 mM): 18.1 ± 1.8 pmol/10^6 cells/min | [^14C]-Citrate transport, % ([6]; [14C]-citrate 10 μM, substrate analog 2 mM, control = 100): 47% | [^14C]-Citrate Uptake (cDNA-specific) ([7]; [14C]-citrate 20 μM, unlabeled compound 2.5 mM): 55.5 ± 3.3 pmol/10^6 cells/min | [^14C]-Citrate Uptake, % ([7]; [14C]-citrate 20 μM, unlabeled compound 2.5 mM, none = 100): 116%

tunicamycin
Effect on NaCT activity in HepG2 cells ([2]; treatment of HepG2 cells with tunicamycin): significant inhibition

B1: ceNaCT (Caenorhabditis elegans; I91S/L182M) (protein)
chain: T1 sequence (P32739 1-551 I91S/L182M)
Km [10]: 76 ± 14 µM
